The results in this text go back to US12070457B2, “Substituted pyridines, pyridazines, pyrimidines, and 1,2,3-triazines as bruton's tyrosine kinase inhibitors” (HUTCHISON MEDIPHARMA LIMITED, priority 2020, dated 2024).

Data set [1] has as its system TMD8 subcutaneous xenograft (human diffuse large B-cell lymphoma cells). The experiment in a line: In vivo efficacy in TMD8 subcutaneous xenograft model. Further details: species or system mouse. The following applies: 10 mg/kg and 30 mg/kg vs Ibrutinib 50 mg/kg and GDC-0853 10 mg/kg. As to the method:
Example 7 Evaluation of In Vivo Efficacy of the Compound of the Present Invention in TMD8 Subcutaneous Xenograft Model
Objects: To investigate the anti-tumor activity of compound 19 in TMD8 subcutaneous xenograft model in nude mice.
Methods: Human diffuse large B-cell lymphoma cells TMD8 (acquired under license from Tokyo Medical and Dental University) were cultured in RPMI1640 medium containing 10% fetal bovine serum. 1×10^7 tumor cells suspended in RPMI1640 medium mixed well with Matrigel (purchased from Corning, USA) at 1:1 were implanted subcutaneously on the right flank of each male Balb/c nude mouse (Shanghai Lingchang Biotechnology Co., Ltd.), pretreated with cyclophosphamide (at a dose of 200 mg/kg, intraperitoneal injection 24 h before cell inoculation). […] All drugs were administered by oral gavage, once a day, and the vehicle control group was administered orally with 0.5% hydroxypropyl methylcellulose solution (pH=3).
Tumor volumes (tumor volume=0.5× long diameter× short diameter^2) and body weights of the mice were measured regularly. The tumor volume change and body weight were statistically analyzed, with p<0.05 considered statistically significant, and p<0.01 as extremely statistically significant.
The anti-tumor activity was evaluated by tumor growth inhibition. […]

Data set [2] in a line: Stability test in liver microsomes (rat). Format: in vitro ADME. The note with it: 1 μM compound. Put shortly: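 Compound (1 μM final) incubated 30 min at 37 °C with male CD-1 mouse or male SD rat pooled liver microsomes (0.5 mg/mL) in 50 mM phosphate buffer with 3 mM MgCl2, 1 mM EDTA and NADPH-regenerating system. Quenched with acetonitrile containing internal standard; LC-MS/MS gives percent remaining relative to 0-min sample.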
(Liver microsomes are vesicles of endoplasmic reticulum, rich in cytochrome P450 enzymes.)

`C[C@H]1CN(C2COC2)CCN1c1ccc(Nc2cc(-c3ccnc(-n4ccn5c6c(cc5c4=O)CC(C)(C)C6)c3CO)cn(C)c2=O)nc1` [Compound 19]: the “anti-tumor efficacy compared with Ibrutinib or GDC-0853” value in data set [1] was “statistically significant superior efficacy to Ibrutinib or GDC-0853”. Further, in data set [2] (0.5 mg/mL liver microsomes, 30 minutes incubation), the “stability in rat liver microsomes compared with reference GDC-0853” value was “better than that of the reference GDC-0853”. Further, the “RLM, percentage of remaining compound after 30 minutes of incubation” value in data set [2] (rat liver microsomes, 30 min) is 92.7%.
